Molecules are shown by their SMILES. “And” between values parts separate entries of the source, which are not always exact repeats. Equal entries are not always repeated.

For data set [1] the following is noted: subcutaneous implants, end of the third month.
The conditions of data set [2]: cited from earlier work.
A short description of data set [3]: Release rates of active agents from Tecophilic, Tecoflex and Carbothane polyurethane implants (Example 6). Type of data set: physicochemical.
Description: The release rates have been normalized to surface area of the implant, thereby adjusting for slight differences in the size of the various implantable devices. The active agents were selected to cover a range of solubilities (as indicated by the varying Log P values; for the purposes of the data provided, a Log P value of greater than about 2.0 is considered to be not readily soluble in aqueous solution) and molecular weights. The polyurethanes were selected to have varying affinities for water soluble active agents and varying flexibility (as indicated by the variation in flex modulus).
For data set [4] the following is noted: cited from earlier work. The source holds these as a separate data set.
Data set [5] is described as follows: In vitro elution of naltrexone from Tecophilic HP-60D-35 polyurethane implants (Example 2). Conditions: HP-60D-35 implants -1, -2, -3, in vitro. It counts as physicochemical. The procedure: HP-60D-35 is extruded to tubes with thickness of 0.30 mm with inside diameter of 1.75 mm. The tubes are then cut into 32 mm in length. One side of the tube is sealed with heat using a heat sealer. The sealing time is less than one minute. Six pellets of naltrexone are loaded into the tubes and both open sides of the tubes are sealed with heat. Each pellet weighs approximately 15.0 mg for a total of 91 mg. The second end open of the tube is sealed with heat in the same way as for the first end. The loaded implant is then conditioned and primed. The conditioning takes place at room temperature in a 0.9% saline solution for one week. Upon completion of the conditioning, the implant undergoes priming. The priming takes place at room temperatures in a 1.8% saline solution for one week. Each implant is tested in vitro in a medium selected to mimic the pH found in the human body. The temperature of the selected medium was kept at approximately 37° C. during the testing. The release rates are shown on FIG. 5 and Table 3.

The mark [6] stands for this setting: Carbothane PC-3595A, F.M.: 4,500.

As to `Cc1nc2n(c(=O)c1CCN1CCC(c3noc4cc(F)ccc34)CC1)CCCC2` [Risperidone], the “risperidone level in the dog plasma” value in data set [1] is “still present at a high level”. Besides, the “Log P” value in data set [2] is reported as “Log P = 3.28”. The non-normalized release rate in data set [3] (Carbothane PC-3575A, F.M.: 620) was found to be 40 µg/day; in data set [3] (setting [6]), 11 µg/day; in data set [3] (Tecoflex EG 100A, F.M.: 10,000), 8 µg/day; in data set [3] (Tecoflex EG-65D, F.M.: 37,000), 2 µg/day; in data set [3] (Tecoflex EG-85A, F.M.: 2,300), 150 µg/day; in data set [3] (Tecophilic HP-60D-20, 15% EWC), 150 µg/day.
For `C[C@@H](O)[C@@H]1NC(=O)[C@H](CCCCN)NC(=O)[C@@H](Cc2c[nH]c3ccccc23)NC(=O)[C@H](Cc2ccccc2)NC(=O)[C@@H](NC(=O)[C@H](N)Cc2ccccc2)CSSC[C@@H](C(=O)N[C@H](CO)[C@@H](C)O)NC1=O` [Octreotide Acetate], the “Relative Water Solubility” value in data set [4] is listed as “Very soluble,”. Also, the non-normalized release rate in data set [3] (Tecoflex EG-85A, F.M.: 2,300) worked out at 30 µg/day; in data set [3] (Tecophilic HP-60D-05, 5.5% EWC) it was 0 µg/day; in data set [3] (Tecophilic HP-60D-10, 8.7% EWC), 25 µg/day; in data set [3] (Tecophilic HP-60D-20, 15% EWC), 1500 µg/day; in data set [3] (Tecophilic HP-60D-35, 24% EWC) it was 4000 µg/day. In addition, the “release rate normalized to surface area of the implant” value (from here on “release rate normalized”) in data set [3] (Tecoflex EG-85A, F.M.: 2,300) stood at 16 μg/day/cm^2; in data set [3] (Tecophilic HP-60D-05, 5.5% EWC), 0 μg/day/cm^2; in data set [3] (Tecophilic HP-60D-10, 8.7% EWC), 11 μg/day/cm^2; in data set [3] (Tecophilic HP-60D-20, 15% EWC), 758 μg/day/cm^2; in data set [3] (Tecophilic HP-60D-35, 24% EWC) it was 2022 μg/day/cm^2.
`O=C1CC[C@@]2(O)[C@H]3Cc4ccc(O)c5c4[C@@]2(CCN3CC2CC2)[C@H]1O5` [Naltrexone Base]: the “Log P” value in data set [2] is on record as “Log P = 2.07”. The “Naltrexone Elution Rates” value was 1529.26 µg/day and 767.38 µg/day and 1400.95 µg/day in data set [5] (week 1 of release); 1511.77 µg/day and 1280.03 µg/day and 1498.86 µg/day in data set [5] (week 2 of release); 1456.01 µg/day and 1635.97 µg/day and 1449.49 µg/day in data set [5] (week 3 of release); 1378.27 µg/day and 1607.13 µg/day and 1500.42 µg/day in data set [5] (week 4 of release); 1393.05 µg/day and 1614.52 µg/day and 1558.37 µg/day in data set [5] (week 5 of release); 1321.71 µg/day and 1550.39 µg/day and 1436.03 µg/day in data set [5] (week 6 of release). The “Naltrexone Elution Rates” value in data set [5] (week 7 of release) is 1273.07 µg/day and 1424.24 µg/day and 1300.73 µg/day; in data set [5] (week 8 of release) it was 1172.82 µg/day and 1246.48 µg/day and 1221.57 µg/day. For the same molecule, the non-normalized release rate in data set [3] (setting [6]) was 25 µg/day; in data set [3] (Tecoflex EG 100A, F.M.: 10,000) it was 55 µg/day; in data set [3] (Tecophilic HP-60D-05, 5.5% EWC), 50 µg/day; in data set [3] (Tecophilic HP-60D-10, 8.7% EWC), 500 µg/day; in data set [3] (Tecophilic HP-60D-20, 15% EWC) it was 1000 µg/day; in data set [3] (Tecophilic HP-60D-35, 24% EWC) it was 1500 µg/day. In data set [3] (Tecophilic HP-60D-60, 31% EWC), the non-normalized release rate came to 2200 µg/day. In addition, the “release rate normalized” value in data set [3] (setting [6]) was found to be 5.5 μg/day/cm^2; in data set [3] (Tecoflex EG 100A, F.M.: 10,000), 23 μg/day/cm^2; in data set [3] (Tecophilic HP-60D-05, 5.5% EWC) it was 12.7 μg/day/cm^2; in data set [3] (Tecophilic HP-60D-10, 8.7% EWC), 127 μg/day/cm^2; in data set [3] (Tecophilic HP-60D-20, 15% EWC) it was 263 μg/day/cm^2; in data set [3] (Tecophilic HP-60D-35, 24% EWC), 704 μg/day/cm^2. Moreover, the “release rate normalized” value in data set [3] (Tecophilic HP-60D-60, 31% EWC) stood at 883 μg/day/cm^2.

The values are drawn from patent publication US8460274B2, “Long term drug delivery devices with polyurethane-based polymers and their manufacture” (Endo Pharmaceuticals Solutions Inc., priority 2008, dated 2013).
